Source: paper PMC11477294, “In Vitro Profiling of the Antiviral Peptide TAT-I24” (International Journal of Molecular Sciences, 2024)
Where a SMILES comes first, the peptide text is derived from it.

Columns and labels:
[1] = test system: baculovirus expressing luciferase under the control of the CMV promoter; format: cell-based; details: luciferase reporter gene expression in HEK293 cells transduced with baculovirus-luc, MOI 5, 24 h post-infection; 1:3 peptide dilution series; non-linear regression; n = 8
Experimental: (§1) A baculovirus expressing luciferase under the control of the CMV promoter has been described previously. HEK293 cells were seeded at a density of 2 × 10^4 cells/100 µL per well in 96-well plates (Sarstedt, Germany). On the next day, cells were treated with a 1:3 dilution series of peptides and, without further pre-incubation, subsequently infected with baculovirus–luc at a multiplicity of infection (MOI) of 5. Cells were lysed 24 h post-infection using 20 µL Cell Culture Lysis Reagent (Promega, Mannheim, Germany). From the lysates, 10 µL was transferred to white 96-well plates, and luciferase was recorded using a luciferase assay system and a GloMax®-Multi Detection System (Promega, Mannheim, Germany).

DiO-labeled MCMV = assay: Entry of DiO-labeled MCMV (microscopy); format: cell-based, mouse cytomegalovirus; details: 10 µM peptide, NIH/3T3 cells, 120 min post-infection, MOI approximately 5
Experimental: DiO labeling was performed by incubation of MCMV (2 × 10^7 pfu) with 5 µL of Vybrant™ DiO Cell-Labeling Solution in 300 µL cell culture medium supplemented with 10% FCS for 20 min at 37 °C. After that, the virus was precipitated overnight at 4 °C by addition of 600 µL autoclaved solution of polyethylene glycol/sodium chloride (30% (w/v) PEG-8000 (Sigma Aldrich, Schnelldorf, Germany), 10.5% NaCl (w/v) in PBS, followed by centrifugation on the next day for one hour at 1600× g at 4 °C. Supernatants were discarded, and the precipitated virus was resuspended in 500 µL cell culture medium supplemented with 10% FCS, aliquoted and stored at −80 °C.
NIH/3T3 cells were seeded at a density of 2 × 10^4 cells/250 µL per well in ibiTreat 8-well chambers (ibidi, Germany) and allowed to attach overnight at 37 °C. On the next day, cells were treated with peptides and infected with DiO-labeled MCMV corresponding to an MOI of approximately 5 with the aid of centrifugal enhancement, twice at 800× g for 15 min. After 2 h of incubation, cells were washed twice with PBS and fixed with 5% formaldehyde for 1 h at room temperature. Then, cells were stained with DAPI for 15 min, as described above. […]

[2] = test system: human red blood cells (RBCs); assay: Hemolysis assay with red blood cells; format: cell-based; details: 1 h at 37 °C
Experimental: Blood from healthy volunteers was collected by venipuncture (Greiner Bio-One, Kremsmünster, Austria) into K2E K2EDTA VacuetteTM tubes (Greiner Bio-One, Kremsmünster, Austria) with 4 mL blood. The assay for hemolysis was adapted from Sæbo et al.. Blood was centrifuged at 1000× g for 10 min, and plasma was kept for further use. Red blood cells were then resuspended in 10 mL PBS and centrifuged again at 1000× g for a total of three times. Cells were then counted using a hemocytometer and seeded at a cell number of 1 × 10^7 cells/100 µL PBS per well in conical 96-well plates (ThermoFisher, Darmstadt, Germany). Next, 1:2 peptide dilutions starting from 40 µM either in PBS or 10% donor serum were prepared, and 100 µL was added to 100 µL of RBC. Plates were then incubated for one hour at 37 °C. As the positive control, three wells with 100 µL RBCs were treated with 100 µL PBS + 0.5% Triton X-100. After incubation, plates were centrifuged at 1000× g for 5 min and supernatants were transferred to flat 96-well plates. Optical density (OD) was determined at 450 nm using a GloMax®-Multi Detection System (Promega, Mannheim, Germany). Images from RBCs from light microscopy and centrifuged plates were taken using an iPhone 12 mini.

[3] = Peptide stability in PBS or PBS with 10% FCS, read out as antiviral activity; format: in vitro ADME; details: 48 h at 37 °C versus −20 °C, two independent incubations in duplicate
Experimental: as §1
NIH/3T3 cells were seeded at a density of 2 × 10^4 cells/100 µL per well in a 96-well plate (Sarstedt, Germany) and allowed to attach overnight. On the next day, cells were treated with a 1:3 dilutions series of peptides and, without further pre-incubation, subsequently infected with the MCMV strain delm157-luc rep. The MCMV stock was prepared and quantified as previously described. […] From the lysates, 10 µL was transferred to white 96-well plates, and luciferase was recorded using a Luciferase Assay System and a GloMax®-Multi Detection System (Promega, Mannheim, Germany). […]

[4] = test system: MCMV strain delm157-luc rep; format: cell-based, mouse cytomegalovirus; details: luciferase reporter gene expression in NIH/3T3 cells infected with replication-competent MCMV, MOI 0.5, 72 h post-infection; 1:3 dilution series; non-linear regression; n = 9
Experimental: NIH/3T3 cells were seeded at a density of 2 × 10^4 cells/100 µL per well in a 96-well plate (Sarstedt, Germany) and allowed to attach overnight. On the next day, cells were treated with a 1:3 dilutions series of peptides and, without further pre-incubation, subsequently infected with the MCMV strain delm157-luc rep. The MCMV stock was prepared and quantified as previously described. The virus (MOI 0.5 for luc assays; for other assays, see the specific descriptions) was adsorbed to cells with the aid of centrifugal enhancement twice at 800× g for 15 min at room temperature and incubated at 37 °C for the indicated times. For the luciferase assays, the infected cells were lysed 72 h post-infection using 20 µL Cell Culture Lysis Reagent (Promega, Mannheim, Germany). From the lysates, 10 µL was transferred to white 96-well plates, and luciferase was recorded using a Luciferase Assay System and a GloMax®-Multi Detection System (Promega, Mannheim, Germany).

CC(C)C[C@H](NC(=O)[C@H](CS)NC(=O)[C@H](CCC(N)=O)NC(=O)[C@@H]1CCCN1C(=O)[C@@H]1CCCN1C(=O)[C@H](CCCNC(=N)N)NC(=O)[C@H](CCCNC(=N)N)NC(=O)[C@H](CCCNC(=N)N)NC(=O)[C@H](CCC(N)=O)NC(=O)[C@H](CCCNC(=N)N)NC(=O)[C@H](CCCNC(=N)N)NC(=O)[C@H](CCCCN)NC(=O)[C@H](CCCCN)NC(=O)[C@H](CCCNC(=N)N)NC(=O)CN)C(=O)N[C@@H](C)C(=O)N[C@@H](Cc1ccccc1)C(=O)N[C@@H](Cc1ccc(O)cc1)C(=O)N[C@@H](C)C(=O)N[C@@H](CS)C(=O)N[C@@H](Cc1ccccc1)C(=O)N[C@@H](CS)C(=O)O [TAT-I24] (H-GRKKRRQRRRPPQCLAFYACFC-OH)
IC50 [1]: 50 nM
organization of fluorescent signal of DiO-labeled MCMV in cells (DiO-labeled MCMV): less perinuclear organization and was more dispersed in the whole cytoplasm
hemolysis of human RBCs ([2]; peptide dilutions in PBS or PBS + 10% donor serum, concentrations < 20 µM (1:2 dilutions), OD 450 nm of supernatants, n = 6): neither induce hemolysis
swelling of RBCs (pellet size after centrifugation) ([2]; peptide dilutions prepared in PBS, up to 20 µM): Swelling of red blood cells
antiviral activity after incubation of peptide with serum (serum stability) ([3]; 20 µg peptide in 50 µL PBS with 10% FCS, read-out baculovirus/HEK293 (24 h) and MCMV/NIH/3T3 (72 h) luciferase): slight reduction in antiviral activity
antiviral activity after incubation of peptide without serum ([3]; 20 µg peptide in 50 µL PBS, read-out baculovirus/HEK293 and MCMV/NIH/3T3 luciferase): curve shaping for both peptides was altered
IC50 [4]: 910 nM
